One may read the ED50 as the dose that gives a 50% effect, or the effect in half of the subjects. The LD50 is the dose at which mortality reaches 50%. A higher LD50 goes with lower toxicity.

The values below come from patent US4636569A, “Pharmaceutical compositions containing compounds with a flavanone skeleton, process for the preparation of the said compound and novel compounds obtained” (Inverni Della Beffa S.p.A., priority 1983, dated 1987).

Structures can show the parent of a compound that is named as a salt.

Data set [1] has as its system bile flow and excretion of cholate. The data set can be described thus: Choleretic activity in rats. Particulars: dose 200 (unit not given); for Bile flow: n=10, controls 2.72 ± 0.11, ** P < 0.01, *** P < 0.001; for Total cholate: n=10, controls 11.64 ± 0.19, ** P < 0.01. Type of data set: in vivo. From the text:
The choleretic activity, compared to that of catechol, has been determined in rats by measuring both the bile flow and the excretion of cholate (cholic acid).

In data set [2] the test system is olive oil induced hyperlipaemia. The data set can be described thus: Hypolipaemic activity in rats (olive oil induced hyperlipaemia). The format is in vivo. Particulars: for Triglycerides / NEFA: n=6, m ± ES; for Triglycerides: controls 252 ± 18; for NEFA: controls 1017 ± 39. The protocol: The hypolipaemia-producing activity was evaluated in other tests in which the variations in cholesterol, triglycerides, NEFA (non-esterified fatty acids) and various lipoprotein fractions were determined.
In Table 3 there is reported the effect of 6,8-dimethyl-5,7,4'-trihydroxyflavanone and of nicotinic acid in combatting olive oil induced hyperlipaemia in rats fasted for 16 hours. The substances under test were administered orally two hours before the lipid load and the hyperlipaemia was induced by administering orally 20 ml/kg of olive oil.
Sacrifice took place three hours after the administration of the oil.

The test system of the next data set is amount of expectoration. Briefly: Expectorant activity in the rabbit (Perry and Boyd method). Particulars: Oryctolagus cuniculus, po. Type of data set: in vivo. The protocol: The expectorant activity has also been monitored by the Perry and Boyd method (J. Pharmacol. Exp. Ther. 7 580, 1941), in which the direct amount of expectoration is determined in the rabbit.

For data set [3], the system named is colouring matter excreted in the bronchial liquid. Briefly: Expectorant activity in mice (Nawatarih fluorescein method). Particulars: for ED50: Mus musculus, mice, oral, read-out: ED50 (dose capable of incrementing the excretion of the colouring matter by 50%). Type of data set: in vivo. The protocol: The expectorant activity of the compounds of the invention was evaluated by the method of Nawatarih (Kagoshima Daigaku Igaku Zasshi 27, 561, 1976) with fluorescein, according to which the increment of colouring matter excreted in the bronchial liquid is determined experimentally in mice. In the experiments the activity of 6,8-dimethyl-5,7,3',4'-tetrahydroxyflavanone was evaluated in comparison with that of bromhexine hydrochloride as reference standard. The results, given in Table 1, are expressed in ED50 (dose capable of incrementing the excretion of the colouring matter by 50%).

Another data set concerns mice. Briefly: Acute toxicity in mice (oral route). The format is in vivo. Conditions: no deaths occurred at a dose rate of 3000 mg/kg. The source says:
(§1) ACUTE TOXICITY (LD50 in mice (oral route)

Data set [4] in a line: Acute toxicity in mice (oral route). Type of data set: in vivo. Conditions: mouse, in vivo.
Text: as §1

For data set [5] the following is noted: known flavanones of extractive origin; cited from earlier work.

In data set [1], `Cc1c(O)c(C)c2c(c1O)C(=O)CC(c1ccc(O)cc1)O2` (stereo not shown) [6,8-Dimethyl-5,7,4'-trihydroxyflavanone, 6,8-dimethyl-5,7,4'-trihydroxyflavanone] had a Bile flow of 5.25 ± 0.18 ml/4 h and a Total cholate of 15.23 ± 0.97 mg/4 h. In data set [2] (50 mg/kg os), this compound yielded a Triglycerides of 198 ± 7 mg/100 ml and an NEFA of 702 ± 23 uEq/1. In data set [2] (50 mg/kg os, vs controls), the “NEFA, change (in parentheses)” value was -31.
Consider `Cc1c(O)c(C)c2c(c1O)C(=O)CC(c1ccc(O)c(O)c1)O2` (stereo not shown) [6,8-dimethyl-5,7,3',4'-tetrahydroxyflavanone], for which the ED50 came out at 200 mg/kg in the data set on amount of expectoration and 78 mg/kg in data set [3]. Also, the therapeutic index result in data set [3] (vs bromhexine, from ED50 and acute oral toxicity in mice) is listed as “distinctly more favourable than that of bromhexine”. The LD0 in the data set on mice was 3000 mg/kg.
In data set [1], `Oc1ccccc1O` [(+) Catechol, catechol] registered a Bile flow of 4.13 ± 0.4 ml/4 h and a Total cholate of 13.03 ± 0.35 mg/4 h.
For the compound `CN(Cc1cc(Br)cc(Br)c1N)C1CCCCC1` [Bromhexine HCl, bromhexine hydrochloride], the ED50 in data set [3] was found to be 51 mg/kg. Also, in data set [4], the LD50 stood at 2140 mg/kg.
Take `O=C(O)c1cccnc1` [Nicotinic acid, nicotinic acid]: in data set [2] (173 mg/kg os), the Triglycerides is 71 ± 6 mg/100 ml and the NEFA is recorded as 709 ± 33 uEq/1. In addition, in data set [2] (173 mg/kg os, vs controls), the “NEFA, change (in parentheses)” value is on record as -30 and the “Triglycerides, change (in parentheses)” value is -72.
In the case of `O=C1C[C@@H](c2ccc(O)c(O)c2)Oc2cc(O)cc(O)c21` [eriodictyol], the “expectorant and mucolytic activity” value in data set [5] was “display expectorant and mucolytic activity”.
`Cc1c(O)c(C)c2c(c1O)C(=O)C[C@@H](c1ccc(O)cc1)O2` [farrerol]: in data set [5], the “expectorant and mucolytic activity” value was “display expectorant and mucolytic activity”.
